Entries after “also recorded” stand apart in the source; their conditions may differ. Read-outs that look alike come from different tables or passages of the source.
Key:
[1] = partition coefficient between octanol and water; cited from earlier work
[2] = system: peripheral neuropathic pain; assay: Patient cases: topical application on the skin, pain scored on the 11-point numerical rating scale (NRS); details: individual patients of Cases 1-15
[3] = after oral administration; cited from earlier work
[4] = cited from earlier work
neuropathic pain = details: in vivo; cited from earlier work

Row | SMILES | Log P [1] | analgesic effect of other or earlier treatment in the patient's history [2] | tolerability of earlier treatment in the patient's history (words) [2] | also measured
1 | O=[N+]([O-])O[C@H]1CO[C@H]2[C@@H]1OC[C@H]2O[N+](=O)[O-] [Isosorbide dinitrate] | 1.3 |  |  | 
2 | CNC1(c2ccccc2Cl)CCCCC1=O (centres unmarked) [Ketamine] | 2.9 |  |  | 
3 | CN(C)C(=O)C(CCN1CCC(O)(c2ccc(Cl)cc2)CC1)(c1ccccc1)c1ccccc1 [Loperamide] | 5.5 |  |  | 
4 | CN(C)CCC=C1c2ccccc2CCc2ccccc21 [amitriptyline] |  | no effect; also recorded: did not have any analgesic effect | induced too many side effects | 
5 | O=C(O)Cc1ccccc1Nc1c(Cl)cccc1Cl [diclofenac] |  |  |  | Cmax. of diclofenac in corresponding tissue [3]: 1160 ng/mL
6 | CNCC[C@H](Oc1cccc2ccccc12)c1cccs1 [duloxetine] |  | did not have any effect | induced too many side effects | 
7 | NCC1(CC(=O)O)CCCCC1 [gabapentin] |  | did not have any effect |  | 
8 | O=C1NC(=O)C(c2ccccc2)(c2ccccc2)N1.[Na] [phenytoin sodium, sodium 5,5-diphenyl-2,4-imidazolidinedione] |  |  |  | solubility in water ([4]; 37° C., pH 10): about 2 mg/ml; maximum solubility in water ([4]; 37° C., pH 11.1): about 140 mg/mL; solubility in water ([4]; 37° C., pH range between 1 and 6): 35 to 40 µg/mL; pH at which dissolvable in water in significant amounts ([4]; according to US 2009/0022779): ≥ 12 pH
9 | CC(C)C[C@H](CN)CC(=O)O [pregabalin] |  | did not have any effect | induced too many side effects | tolerability of earlier treatment in the patient's history (words) ([2]; listed as Pregabalin): too much side effects; day at which significant pain reduction or relief versus placebo was shown (neuropathic pain): 2 days; median onset of action (>30% pain reduction) (neuropathic pain): 36 days
10 | COc1cccc(C2(O)CCCCC2CN(C)C)c1 (centres unmarked) [tramadol] |  | did not have any analgesic effect | induced too many side effects | 
